Measurements from PubChem BioAssay (NCI).
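Briefly, cells in 96-well plates were exposed to five compound concentrations for 48 h, and endpoints were estimated by linear interpolation. GI50 is the concentration that inhibits growth by half. TGI marks complete inhibition of growth.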

These molecules were tested on MOLT-4 leukemia (assay: NCI anticancer screen, dose series, 48 h).

SMILES | GI50 [nM] | TGI [nM]
Cc1ccc(SC2c3ccc(C)cc3Oc3nc(N)c(C#N)c(N)c32)cc1 (stereo unspecified) | 2270 | 6090
O=C(Nc1ccc(Br)cc1F)c1cc(F)ccc1O | 1860 | 6400
c1ccc(-c2nnc(-c3ccccn3)s2)nc1 | > 100000 | > 100000
CN1CCN(C2CCN(C(=O)Nc3cc(Oc4ccc(NC(=O)C5(C(=O)Nc6ccc(F)cc6)CC5)c(F)c4)ccn3)CC2)CC1 | 803 | > 2700
CCN1CCN(C(=O)[C@@]2(C)CC[C@]3(C)CC[C@]4(C)C(=CC(=O)[C@@H]5[C@@]6(C)CC[C@H](OC7C[C@@H](O)[C@@H](O)C(C)O7)C(C)(C)[C@@H]6CC[C@]54C)[C@@H]3C2)CC1 (stereo partly specified) | 1180 | 3000
Nc1nn2cc(F)cnc2c1C(=O)Nc1cncc(F)c1N1CCC(C(=O)N2CCN(C3COC3)CC2)CC1 | 71.2 | 762

These molecules were tested on SK-MEL-28 melanoma (assay: NCI anticancer screen, dose series, 48 h).

SMILES | GI50 [nM] | TGI [nM]
COc1ccccc1/C=N\N/C(N)=N\N=C\c1ccccc1OC | 2640 | 28400
COc1cccc(CC(C)=C(c2ccc(OCCN(C)C)cc2)c2ccc(OCCN(C)C)cc2)c1 | 602 | 1100
COC(=O)COc1ccccc1/C=C1\N=C(c2ccccc2)N(c2cc(C(F)(F)F)ccc2Cl)C1=O | 47600 | > 100000
C=C1C(=O)OC2CC(C)C(C(CC(C)=O)OC(C)=O)=CCC12 (stereo unspecified) |  | 24100
C[N+](C)(C)CC1CCCc2ccccc2C1=O (stereo unspecified) |  | 34500
Cn1c(I)c(C#CCO[Si](C)(C)C(C)(C)C)c(=O)[nH]c1=O | 2950 | 9050
Cc1ccc(SC2c3ccc(C)cc3Oc3nc(N)c(C#N)c(N)c32)cc1 (stereo unspecified) | 1830 | 3350
O=C(Nc1ccc(Br)cc1F)c1cc(F)ccc1O | 377 | 1840
c1ccc(-c2nnc(-c3ccccn3)s2)nc1 | > 100000 | > 100000
CN1CCN(C2CCN(C(=O)Nc3cc(Oc4ccc(NC(=O)C5(C(=O)Nc6ccc(F)cc6)CC5)c(F)c4)ccn3)CC2)CC1 | 771 | 2280
CCN1CCN(C(=O)[C@@]2(C)CC[C@]3(C)CC[C@]4(C)C(=CC(=O)[C@@H]5[C@@]6(C)CC[C@H](OC7C[C@@H](O)[C@@H](O)C(C)O7)C(C)(C)[C@@H]6CC[C@]54C)[C@@H]3C2)CC1 (stereo partly specified) | 1060 | 2250
Nc1nn2cc(F)cnc2c1C(=O)Nc1cncc(F)c1N1CCC(C(=O)N2CCN(C3COC3)CC2)CC1 | 2950 | > 100000

These molecules were tested on HCC-2998 colon (assay: NCI anticancer screen, dose series, 48 h).

SMILES | GI50 [nM] | TGI [nM]
COc1ccccc1/C=N\N/C(N)=N\N=C\c1ccccc1OC | 1030 | 11300
COc1cccc(CC(C)=C(c2ccc(OCCN(C)C)cc2)c2ccc(OCCN(C)C)cc2)c1 | 895 | 4920
COC(=O)COc1ccccc1/C=C1\N=C(c2ccccc2)N(c2cc(C(F)(F)F)ccc2Cl)C1=O | 36300 | > 100000
C=C1C(=O)OC2CC(C)C(C(CC(C)=O)OC(C)=O)=CCC12 (stereo unspecified) |  | 24100
C[N+](C)(C)CC1CCCc2ccccc2C1=O (stereo unspecified) |  | 45000
Cn1c(I)c(C#CCO[Si](C)(C)C(C)(C)C)c(=O)[nH]c1=O | 18600 | 34700
Cc1ccc(SC2c3ccc(C)cc3Oc3nc(N)c(C#N)c(N)c32)cc1 (stereo unspecified) | 1800 | 3460
O=C(Nc1ccc(Br)cc1F)c1cc(F)ccc1O | 2370 | 8450
c1ccc(-c2nnc(-c3ccccn3)s2)nc1 | > 100000 | > 100000
CN1CCN(C2CCN(C(=O)Nc3cc(Oc4ccc(NC(=O)C5(C(=O)Nc6ccc(F)cc6)CC5)c(F)c4)ccn3)CC2)CC1 | > 2040 | > 10000
CCN1CCN(C(=O)[C@@]2(C)CC[C@]3(C)CC[C@]4(C)C(=CC(=O)[C@@H]5[C@@]6(C)CC[C@H](OC7C[C@@H](O)[C@@H](O)C(C)O7)C(C)(C)[C@@H]6CC[C@]54C)[C@@H]3C2)CC1 (stereo partly specified) | 2260 | 8940
Nc1nn2cc(F)cnc2c1C(=O)Nc1cncc(F)c1N1CCC(C(=O)N2CCN(C3COC3)CC2)CC1 | 46.4 | > 100000
